Data taken from ChEMBL document CHEMBL4257449, “New N-(2-phenyl-4-oxo-1,3-thiazolidin-3-yl)-1,2-benzothiazole-3-carboxamides and acetamides as antimicrobial agents” (2017).
≈ marks a conversion by molar mass, not a printed value.

Tested on: Talaromyces funiculosus
Test: Fungicidal activity against Penicillium funiculosum ATCC 36839 incubated for 72 hrs followed by serial sub-cultivation for 72 hrs and measured after 72 hrs by serial dilution method
Format: functional
Settings: not given

Structure (SMILES)	MFC99.5
O=C(NN1C(=O)CSC1c1c(F)cccc1Cl)c1nsc2ccccc12 (centres undefined)	73.5 ×10⁻² umol/ml
O=C(NN1C(=O)CSC1c1c(Cl)cccc1Cl)c1nsc2ccccc12 (centres undefined)	79 ×10⁻² umol/ml

Tested on: Trichoderma viride
Test: Fungicidal activity against Trichoderma viride IAM 5061 incubated for 72 hrs followed by serial sub-cultivation for 72 hrs and measured after 72 hrs by serial dilution method
Format: functional
Settings: not given

Structure (SMILES)	MFC99.5
O=C(NN1C(=O)CSC1c1c(F)cccc1Cl)c1nsc2ccccc12 (centres undefined)	18.4 ×10⁻² umol/ml
O=C(NN1C(=O)CSC1c1c(Cl)cccc1Cl)c1nsc2ccccc12 (centres undefined)	18.9 ×10⁻² umol/ml

Tested on: Staphylococcus aureus
Test: Antibacterial activity against Staphylococcus aureus ATCC 6538 after 24 hrs by microdilution method
Format: functional
Settings: ATCC 6538, 24 h

MIC	Structure (SMILES)
196 µM (≈ 79.9 µg/mL)	O=C(NN1C(=O)CSC1c1c(F)cccc1Cl)c1nsc2ccccc12 (centres undefined)
189 µM (≈ 80.2 µg/mL)	O=C(NN1C(=O)CSC1c1c(Cl)cccc1Cl)c1nsc2ccccc12 (centres undefined)

Tested on: Salmonella typhimurium
Test: Antibacterial activity against Salmonella typhimurium ATCC 13311 after 24 hrs by microdilution method
Format: functional, Salmonella enterica subsp. enterica serovar Typhimurium
Settings: Salmonella enterica, ATCC 13311, 24 h

MIC	Structure (SMILES)
196 µM (≈ 79.9 µg/mL)	O=C(NN1C(=O)CSC1c1c(F)cccc1Cl)c1nsc2ccccc12 (centres undefined)
395 µM (≈ 168 µg/mL)	O=C(NN1C(=O)CSC1c1c(Cl)cccc1Cl)c1nsc2ccccc12 (centres undefined)

Tested on: Micrococcus flavus
Test: Antibacterial activity against Micrococcus flavus ATCC 10240 after 24 hrs by microdilution method
Format: functional
Settings: ATCC 10240, 24 h

MIC	Structure (SMILES)
270 µM (≈ 110 µg/mL)	O=C(NN1C(=O)CSC1c1c(F)cccc1Cl)c1nsc2ccccc12 (centres undefined)
543 µM (≈ 230 µg/mL)	O=C(NN1C(=O)CSC1c1c(Cl)cccc1Cl)c1nsc2ccccc12 (centres undefined)

Tested on: Enterobacter cloacae
Test: Bactericidal activity against Enterobacter cloacae incubated for 24 hrs followed by serial sub-cultivation and measured after 24 hrs by microdilution method
Format: functional
Settings: not given

Structure (SMILES)	MBC99.5
O=C(NN1C(=O)CSC1c1c(F)cccc1Cl)c1nsc2ccccc12 (centres undefined)	73.5 ×10⁻² umol/ml
O=C(NN1C(=O)CSC1c1c(Cl)cccc1Cl)c1nsc2ccccc12 (centres undefined)	79 ×10⁻² umol/ml

Tested on: Aspergillus versicolor
Test: Antifungal activity against Aspergillus versicolor ATCC 11730 after 72 hrs by serial dilution method
Format: functional
Settings: ATCC 11730, 72 h

MIC	Structure (SMILES)
184 µM (≈ 75 µg/mL)	O=C(NN1C(=O)CSC1c1c(F)cccc1Cl)c1nsc2ccccc12 (centres undefined)
189 µM (≈ 80.2 µg/mL)	O=C(NN1C(=O)CSC1c1c(Cl)cccc1Cl)c1nsc2ccccc12 (centres undefined)

Tested on: Pseudomonas aeruginosa
Test: Antibacterial activity against Pseudomonas aeruginosa ATCC 27853 after 24 hrs by microdilution method
Format: functional
Settings: ATCC 27853, 24 h

MIC	Structure (SMILES)
196 µM (≈ 79.9 µg/mL)	O=C(NN1C(=O)CSC1c1c(F)cccc1Cl)c1nsc2ccccc12 (centres undefined)
189 µM (≈ 80.2 µg/mL)	O=C(NN1C(=O)CSC1c1c(Cl)cccc1Cl)c1nsc2ccccc12 (centres undefined)

Tested on: Aspergillus ochraceus
Test: Fungicidal activity against Aspergillus ochraceus ATCC 12066 incubated for 72 hrs followed by serial sub-cultivation for 72 hrs and measured after 72 hrs by serial dilution method
Format: functional
Settings: not given

Structure (SMILES)	MFC99.5
O=C(NN1C(=O)CSC1c1c(F)cccc1Cl)c1nsc2ccccc12 (centres undefined)	73.5 ×10⁻² umol/ml
O=C(NN1C(=O)CSC1c1c(Cl)cccc1Cl)c1nsc2ccccc12 (centres undefined)	18.9 ×10⁻² umol/ml

Tested on: Staphylococcus aureus
Test: Bactericidal activity against Staphylococcus aureus ATCC 6538 incubated for 24 hrs followed by serial sub-cultivation and measured after 24 hrs by microdilution method
Format: functional
Settings: not given

Structure (SMILES)	MBC99.5
O=C(NN1C(=O)CSC1c1c(F)cccc1Cl)c1nsc2ccccc12 (centres undefined)	36.8 ×10⁻² umol/ml
O=C(NN1C(=O)CSC1c1c(Cl)cccc1Cl)c1nsc2ccccc12 (centres undefined)	39.5 ×10⁻² umol/ml

Tested on: Aspergillus fumigatus
Test: Antifungal activity against Aspergillus fumigatus after 72 hrs by serial dilution method
Format: functional
Settings: not given

MIC	Structure (SMILES)
368 µM (≈ 150 µg/mL)	O=C(NN1C(=O)CSC1c1c(F)cccc1Cl)c1nsc2ccccc12 (centres undefined)
395 µM (≈ 168 µg/mL)	O=C(NN1C(=O)CSC1c1c(Cl)cccc1Cl)c1nsc2ccccc12 (centres undefined)

Tested on: Escherichia coli
Test: Antibacterial activity against Escherichia coli ATCC 35210 after 24 hrs by microdilution method
Format: functional
Settings: ATCC 35210, 24 h

MIC	Structure (SMILES)
270 µM (≈ 110 µg/mL)	O=C(NN1C(=O)CSC1c1c(F)cccc1Cl)c1nsc2ccccc12 (centres undefined)
543 µM (≈ 230 µg/mL)	O=C(NN1C(=O)CSC1c1c(Cl)cccc1Cl)c1nsc2ccccc12 (centres undefined)

Tested on: Listeria monocytogenes
Test: Bactericidal activity against Listeria monocytogenes NCTC 7973 incubated for 24 hrs followed by serial sub-cultivation and measured after 24 hrs by microdilution method
Format: functional
Settings: not given

Structure (SMILES)	MBC99.5
O=C(NN1C(=O)CSC1c1c(F)cccc1Cl)c1nsc2ccccc12 (centres undefined)	36.8 ×10⁻² umol/ml
O=C(NN1C(=O)CSC1c1c(Cl)cccc1Cl)c1nsc2ccccc12 (centres undefined)	79 ×10⁻² umol/ml

Tested on: Penicillium ochrochloron
Test: Antifungal activity against Penicillium ochrochloron ATCC 9112 after 72 hrs by serial dilution method
Format: functional
Settings: ATCC 9112, 72 h

MIC	Structure (SMILES)
368 µM (≈ 150 µg/mL)	O=C(NN1C(=O)CSC1c1c(F)cccc1Cl)c1nsc2ccccc12 (centres undefined)
395 µM (≈ 168 µg/mL)	O=C(NN1C(=O)CSC1c1c(Cl)cccc1Cl)c1nsc2ccccc12 (centres undefined)

Tested on: Candida albicans
Test: Fungicidal activity against Candida albicans incubated for 72 hrs followed by serial sub-cultivation for 72 hrs and measured after 72 hrs by serial dilution method
Format: functional
Settings: not given

Structure (SMILES)	MFC99.5
O=C(NN1C(=O)CSC1c1c(F)cccc1Cl)c1nsc2ccccc12 (centres undefined)	85.8 ×10⁻² umol/ml
O=C(NN1C(=O)CSC1c1c(Cl)cccc1Cl)c1nsc2ccccc12 (centres undefined)	79 ×10⁻² umol/ml

Tested on: Aspergillus ochraceus
Test: Antifungal activity against Aspergillus ochraceus ATCC 12066 after 72 hrs by serial dilution method
Format: functional
Settings: ATCC 12066, 72 h

MIC	Structure (SMILES)
368 µM (≈ 150 µg/mL)	O=C(NN1C(=O)CSC1c1c(F)cccc1Cl)c1nsc2ccccc12 (centres undefined)
94.5 µM (≈ 40.1 µg/mL)	O=C(NN1C(=O)CSC1c1c(Cl)cccc1Cl)c1nsc2ccccc12 (centres undefined)

Tested on: Talaromyces funiculosus
Test: Antifungal activity against Penicillium funiculosum ATCC 36839 after 72 hrs by serial dilution method
Format: functional
Settings: ATCC 36839, 72 h

MIC	Structure (SMILES)
368 µM (≈ 150 µg/mL)	O=C(NN1C(=O)CSC1c1c(F)cccc1Cl)c1nsc2ccccc12 (centres undefined)
395 µM (≈ 168 µg/mL)	O=C(NN1C(=O)CSC1c1c(Cl)cccc1Cl)c1nsc2ccccc12 (centres undefined)

Tested on: Bacillus cereus
Test: Bactericidal activity against Bacillus cereus incubated for 24 hrs followed by serial sub-cultivation and measured after 24 hrs by microdilution method
Format: functional
Settings: not given

Structure (SMILES)	MBC99.5
O=C(NN1C(=O)CSC1c1c(F)cccc1Cl)c1nsc2ccccc12 (centres undefined)	36.8 ×10⁻² umol/ml
O=C(NN1C(=O)CSC1c1c(Cl)cccc1Cl)c1nsc2ccccc12 (centres undefined)	79 ×10⁻² umol/ml

Tested on: Salmonella typhimurium
Test: Bactericidal activity against Salmonella typhimurium ATCC 13311 incubated for 24 hrs followed by serial sub-cultivation and measured after 24 hrs by microdilution method
Format: functional, Salmonella enterica subsp. enterica serovar Typhimurium
Settings: not given

Structure (SMILES)	MBC99.5
O=C(NN1C(=O)CSC1c1c(F)cccc1Cl)c1nsc2ccccc12 (centres undefined)	36.8 ×10⁻² umol/ml
O=C(NN1C(=O)CSC1c1c(Cl)cccc1Cl)c1nsc2ccccc12 (centres undefined)	79 ×10⁻² umol/ml

Tested on: Listeria monocytogenes
Test: Antibacterial activity against Listeria monocytogenes NCTC 7973 after 24 hrs by microdilution method
Format: functional
Settings: NCTC 7973, 24 h

MIC	Structure (SMILES)
270 µM (≈ 110 µg/mL)	O=C(NN1C(=O)CSC1c1c(F)cccc1Cl)c1nsc2ccccc12 (centres undefined)
395 µM (≈ 168 µg/mL)	O=C(NN1C(=O)CSC1c1c(Cl)cccc1Cl)c1nsc2ccccc12 (centres undefined)

Tested on: Trichoderma viride
Test: Antifungal activity against Trichoderma viride IAM 5061 after 72 hrs by serial dilution method
Format: functional
Settings: IAM 5061, 72 h

MIC	Structure (SMILES)
138 µM (≈ 56.3 µg/mL)	O=C(NN1C(=O)CSC1c1c(F)cccc1Cl)c1nsc2ccccc12 (centres undefined)
132 µM (≈ 56 µg/mL)	O=C(NN1C(=O)CSC1c1c(Cl)cccc1Cl)c1nsc2ccccc12 (centres undefined)

Tested on: Candida albicans
Test: Antifungal activity against Candida albicans after 72 hrs by serial dilution method
Format: functional
Settings: not given

MIC	Structure (SMILES)
735 µM (≈ 300 µg/mL)	O=C(NN1C(=O)CSC1c1c(F)cccc1Cl)c1nsc2ccccc12 (centres undefined)
395 µM (≈ 168 µg/mL)	O=C(NN1C(=O)CSC1c1c(Cl)cccc1Cl)c1nsc2ccccc12 (centres undefined)

Tested on: Escherichia coli
Test: Bactericidal activity against Escherichia coli ATCC 35210 incubated for 24 hrs followed by serial sub-cultivation and measured after 24 hrs by microdilution method
Format: functional
Settings: not given

Structure (SMILES)	MBC99.5
O=C(NN1C(=O)CSC1c1c(F)cccc1Cl)c1nsc2ccccc12 (centres undefined)	36.8 ×10⁻² umol/ml
O=C(NN1C(=O)CSC1c1c(Cl)cccc1Cl)c1nsc2ccccc12 (centres undefined)	79 ×10⁻² umol/ml

Tested on: Bacillus cereus
Test: Antibacterial activity against Bacillus cereus after 24 hrs by microdilution method
Format: functional
Settings: not given

MIC	Structure (SMILES)
196 µM (≈ 79.9 µg/mL)	O=C(NN1C(=O)CSC1c1c(F)cccc1Cl)c1nsc2ccccc12 (centres undefined)
395 µM (≈ 168 µg/mL)	O=C(NN1C(=O)CSC1c1c(Cl)cccc1Cl)c1nsc2ccccc12 (centres undefined)

Tested on: Penicillium ochrochloron
Test: Fungicidal activity against Penicillium ochrochloron ATCC 9112 incubated for 72 hrs followed by serial sub-cultivation for 72 hrs and measured after 72 hrs by serial dilution method
Format: functional
Settings: not given

Structure (SMILES)	MFC99.5
O=C(NN1C(=O)CSC1c1c(F)cccc1Cl)c1nsc2ccccc12 (centres undefined)	85.8 ×10⁻² umol/ml
O=C(NN1C(=O)CSC1c1c(Cl)cccc1Cl)c1nsc2ccccc12 (centres undefined)	79 ×10⁻² umol/ml

Tested on: Enterobacter cloacae
Test: Antibacterial activity against Enterobacter cloacae after 24 hrs by microdilution method
Format: functional
Settings: not given

MIC	Structure (SMILES)
368 µM (≈ 150 µg/mL)	O=C(NN1C(=O)CSC1c1c(F)cccc1Cl)c1nsc2ccccc12 (centres undefined)
543 µM (≈ 230 µg/mL)	O=C(NN1C(=O)CSC1c1c(Cl)cccc1Cl)c1nsc2ccccc12 (centres undefined)

Tested on: Pseudomonas aeruginosa
Test: Bactericidal activity against Pseudomonas aeruginosa ATCC 27853 incubated for 24 hrs followed by serial sub-cultivation and measured after 24 hrs by microdilution method
Format: functional
Settings: not given

Structure (SMILES)	MBC99.5
O=C(NN1C(=O)CSC1c1c(F)cccc1Cl)c1nsc2ccccc12 (centres undefined)	36.8 ×10⁻² umol/ml
O=C(NN1C(=O)CSC1c1c(Cl)cccc1Cl)c1nsc2ccccc12 (centres undefined)	39.5 ×10⁻² umol/ml

Tested on: Aspergillus fumigatus
Test: Fungicidal activity against Aspergillus fumigatus incubated for 72 hrs followed by serial sub-cultivation for 72 hrs and measured after 72 hrs by serial dilution method
Format: functional
Settings: not given

Structure (SMILES)	MFC99.5
O=C(NN1C(=O)CSC1c1c(F)cccc1Cl)c1nsc2ccccc12 (centres undefined)	73.5 ×10⁻² umol/ml
O=C(NN1C(=O)CSC1c1c(Cl)cccc1Cl)c1nsc2ccccc12 (centres undefined)	79 ×10⁻² umol/ml

Tested on: Micrococcus flavus
Test: Bactericidal activity against Micrococcus flavus ATCC 10240 incubated for 24 hrs followed by serial sub-cultivation and measured after 24 hrs by microdilution method
Format: functional
Settings: not given

Structure (SMILES)	MBC99.5
O=C(NN1C(=O)CSC1c1c(F)cccc1Cl)c1nsc2ccccc12 (centres undefined)	36.8 ×10⁻² umol/ml
O=C(NN1C(=O)CSC1c1c(Cl)cccc1Cl)c1nsc2ccccc12 (centres undefined)	79 ×10⁻² umol/ml

Tested on: Aspergillus versicolor
Test: Fungicidal activity against Aspergillus versicolor ATCC 11730 incubated for 72 hrs followed by serial sub-cultivation for 72 hrs and measured after 72 hrs by serial dilution method
Format: functional
Settings: not given

Structure (SMILES)	MFC99.5
O=C(NN1C(=O)CSC1c1c(F)cccc1Cl)c1nsc2ccccc12 (centres undefined)	73.5 ×10⁻² umol/ml
O=C(NN1C(=O)CSC1c1c(Cl)cccc1Cl)c1nsc2ccccc12 (centres undefined)	70.8 ×10⁻² umol/ml

Tested on: Aspergillus niger
Test: Antifungal activity against Aspergillus niger ATCC 6275 after 72 hrs by serial dilution method
Format: functional
Settings: ATCC 6275, 72 h

MIC	Structure (SMILES)
368 µM (≈ 150 µg/mL)	O=C(NN1C(=O)CSC1c1c(F)cccc1Cl)c1nsc2ccccc12 (centres undefined)
395 µM (≈ 168 µg/mL)	O=C(NN1C(=O)CSC1c1c(Cl)cccc1Cl)c1nsc2ccccc12 (centres undefined)

Tested on: Aspergillus niger
Test: Fungicidal activity against Aspergillus niger ATCC 6275 incubated for 72 hrs followed by serial sub-cultivation for 72 hrs and measured after 72 hrs by serial dilution method
Format: functional
Settings: not given

Structure (SMILES)	MFC99.5
O=C(NN1C(=O)CSC1c1c(F)cccc1Cl)c1nsc2ccccc12 (centres undefined)	73.5 ×10⁻² umol/ml
O=C(NN1C(=O)CSC1c1c(Cl)cccc1Cl)c1nsc2ccccc12 (centres undefined)	79 ×10⁻² umol/ml
